According to patent US9265773B2, “Tetracyclic heterocycle compounds and methods of use thereof for the treatment of viral diseases” (priority 2011, dated 2016):

Columns and labels:
HCV replicon genotype 1b = assay: microbe, parasite or virus in culture; format: cell-based; conditions: genotype 1b replicon cells, incubated 96 hours, NS3/4A ELISA readout
HCV replicon genotype 1a = assay: microbe, parasite or virus in culture; format: cell-based; conditions: genotype 1a replicon cells, incubated 96 hours, NS3/4A ELISA readout

| Structure (SMILES) | IC50 (HCV replicon genotype 1b; Hepatitis C virus, 96 h) [nM] | IC50 (HCV replicon genotype 1a; Hepatitis C virus, 96 h) [nM] | IC50 (HCV replicon genotype 1b) [nM] | IC50 (HCV replicon genotype 1a) [nM] |
| --- | --- | --- | --- | --- |
| CNC(=O)c1c(-c2ccc(F)cc2)oc2cc(N(C)S(C)(=O)=O)c(-c3ccc4c(n3)-c3cc5c(CN(C)C)cccc5n3CO4)cc12 [Compound 70] | 18 | 71 |  |  |
| CNC(=O)c1c(-c2ccc(F)cc2)oc2cc(N(C)S(C)(=O)=O)c(-c3ccc4c(n3)-c3cc5cccc(CN(C)C)c5n3CO4)cc12 [Compound 71] | 4.5 | 13 |  |  |
| CNC(=O)c1c(-c2ccc(F)cc2)oc2cc(N(C)S(C)(=O)=O)c(-c3ccc4c(n3)-c3cc5c(CO)cccc5n3CO4)cc12 [Compound 72, 2-(4-fluorophenyl)-5-(11-(hydroxymethyl)-6H-pyrido[2′,3′:5,6][1,3]oxazino[3,4-a]indol-2-yl)-N-methyl-6-(N-methylmethylsulfonamido)benzofuran-3-carboxamide] | 9 | 52 |  |  |
| CNC(=O)c1c(-c2ccc(F)cc2)oc2cc(N(C)S(C)(=O)=O)c(-c3ccc4c(n3)-c3cc5c(C(N)=O)cccc5n3CO4)cc12 [Compound 73, 2-(2-(4-fluorophenyl)-3-(methylcarbamoyl)-6-(N-methylmethylsulfonamido)benzofuran-5-yl)-6H-pyrido[2′,3′:5,6][1,3]oxazino[3,4-a]indole-11-carboxamide] | 36 | 625 |  |  |
| CNC(=O)c1c(-c2ccc(F)cc2)oc2cc(N(C)S(C)(=O)=O)c(-c3cc4c(c[n+]3[O-])OCn3c-4cc4c(F)cccc43)cc12 [Compound 74] | 25 | 15 |  |  |
| CNC(=O)c1c(-c2ccc(F)cc2)oc2cc(N(C)S(C)(=O)=O)c(-c3ccc4c(c3)-c3cc5ccccc5n3CC(O)CO4)cc12 (stereo not drawn) [Compound 75, 2-(4-fluorophenyl)-5-(7-hydroxy-7,8-dihydro-6H-benzo[2,3][1,5]oxazocino[5,4-a]indol-2-yl)-N-methyl-6-(N-methylmethylsulfonamido)benzofuran-3-carboxamide] | 2.6 | 2.8 |  |  |
| CNC(=O)c1c(-c2ccc(F)cc2)oc2cc(N(C)S(C)(=O)=O)c(-c3ccc4c(c3)-c3cc5ccccc5n3CC(F)CO4)cc12 (stereo not drawn) [Compound 76, 5-(7-fluoro-7,8-dihydro-6H-benzo[2,3][1,5]oxazocino[5,4-a]indol-2-yl)-2-(4-fluorophenyl)-N-methyl-6-(N-methylmethylsulfonamido)benzofuran-3-carboxamide] | 5.8 | 4.5 |  |  |
| CNC(=O)c1c(-c2ccc(F)cc2)oc2cc(N(C)S(C)(=O)=O)c(-c3ccc4c(c3)-c3cc5ccccc5n3CC(F)(F)CO4)cc12 [Compound 77, 5-(7,7-difluoro-7,8-dihydro-6H-benzo[2,3][1,5]oxazocino[5,4-a]indol-2-yl)-2-(4-fluorophenyl)-N-methyl-6-(N-methylmethylsulfonamido)benzofuran-3-carboxamide] | 11 | 10 |  |  |
| CNC(=O)c1c(-c2ccc(F)cc2)oc2cc(N(C)S(C)(=O)=O)c(-c3ccc4c(c3)-c3cc5ccccc5n3CC(C)(O)CO4)cc12 (stereo not drawn) [Compound 78, 2-(4-fluorophenyl)-5-(7-hydroxy-7-methyl-7,8-dihydro-6H-benzo[2,3][1,5]oxazocino[5,4-a]indol-2-yl)-N-methyl-6-(N-methylmethylsulfonamido)benzofuran-3-carboxamide] | 3.5 | 5.7 |  |  |
| CNC(=O)c1c(-c2ccc(F)cc2)oc2cc(N(C)S(C)(=O)=O)c(-c3ccc4c(c3)-c3cc5ccccc5n3CC(O)(C(F)(F)F)CO4)cc12 (stereo not drawn) [Compound 79, 2-(4-fluorophenyl)-5-(7-hydroxy-7-(trifluoromethyl)-7,8-dihydro-6H-benzo[2,3][1,5]oxazocino[5,4-a]indol-2-yl)-N-methyl-6-(N-methylmethylsulfonamido)benzofuran-3-carboxamide] | 11 | 10 |  |  |
| CNC(=O)c1c(-c2ccc(F)cc2)oc2cc(N(C)S(C)(=O)=O)c(-c3ccc4c(c3)-c3cc5ccccc5n3CC(NCCN(C)C)CO4)cc12 (stereo not drawn) [Compound 80, 5-(7-((2-(dimethylamino)ethyl)amino)-7,8-dihydro-6H-benzo[2,3][1,5]oxazocino[5,4-a]indol-2-yl)-2-(4-fluorophenyl)-N-methyl-6-(N-methylmethylsulfonamido)benzofuran-3-carboxamide] | 15 | 18 |  |  |
| CNC(=O)c1c(-c2ccc(F)cc2)oc2cc(N(C)S(C)(=O)=O)c(-c3ccc4c(c3)-c3cc5ccccc5n3CC(NCCCN(C)C)CO4)cc12 (stereo not drawn) [Compound 81] | 22 | 36 |  |  |
| CNC(=O)c1c(-c2ccc(F)cc2)oc2cc(N(C)S(C)(=O)=O)c(-c3ccc4c(c3)-c3cc5ccccc5n3CC(NC3CCN(C)CC3)CO4)cc12 (stereo not drawn) [Compound 82] | 11 | 15 |  |  |
| CNC(=O)c1c(-c2ccc(F)cc2)oc2cc(N(C)S(C)(=O)=O)c(-c3ccc4c(c3)-c3cc5ccccc5n3CC(NCCN3CCOCC3)CO4)cc12 (stereo not drawn) [Compound 83] | 12 | 15 |  |  |
| CNC(=O)c1c(-c2ccc(F)cc2)oc2cc(N(C)S(C)(=O)=O)c(-c3ccc4c(c3)-c3cc5ccccc5n3CC(NCCN3CCCC3)CO4)cc12 (stereo not drawn) [Compound 84] | 16 | 26 |  |  |
| CNC(=O)c1c(-c2ccc(F)cc2)oc2cc(N(C)S(C)(=O)=O)c(-c3ccc4c(c3)-c3cc5ccccc5n3CC(NCCO)CO4)cc12 (stereo not drawn) [Compound 85] | 7.7 | 13 |  |  |
| CNC(=O)c1c(-c2ccc(F)cc2)oc2cc(N(C)S(C)(=O)=O)c(-c3ccc4c(c3)-c3cc5ccccc5n3CC(N(C)CCO)CO4)cc12 (stereo not drawn) [Compound 86] | 12 | 17 |  |  |
| CNC(=O)c1c(-c2ccc(F)cc2)oc2cc(N(C)S(C)(=O)=O)c(-c3ccc4c(n3)-c3cc5c(F)cccc5n3C(CO)O4)cc12 (stereo not drawn) [Compound 87, 5-(11-fluoro-6-(hydroxymethyl)-6H-pyrido[2′,3′:5,6][1,3]oxazino[3,4-a]indol-2-yl)-2-(4-fluorophenyl)-N-methyl-6-(N-methylmethylsulfonamido)benzofuran-3-carboxamide] | 3.3 | 3 |  |  |
| CNC(=O)c1c(-c2ccc(F)cc2)oc2cc(N(C)S(C)(=O)=O)c(-c3ccc4c(n3)-c3cc5c(F)cccc5n3C(CO)O4)cc12 (stereo not drawn) [Compound 88, 5-(11-fluoro-6-(hydroxymethyl)-6H-pyrido[2′,3′:5,6][1,3]oxazino[3,4-a]indol-2-yl)-2-(4-fluorophenyl)-N-methyl-6-(N-methylmethylsulfonamido)benzofuran-3-carboxamide] |  |  | 2.6 | 2.7 |
| CNC(=O)c1c(-c2ccc(F)cc2)oc2cc(N(C)S(C)(=O)=O)c(-c3cc4c(cn3)OC(CO)n3c-4cc4c(F)cccc43)cc12 (stereo not drawn) [Compound 89] |  |  | 0.9 | 1.1 |
| CNC(=O)c1c(-c2ccc(F)cc2)oc2cc(N(C)S(C)(=O)=O)c(-c3cc4c(cn3)OC(CO)n3c-4cc4c(F)cccc43)cc12 (stereo not drawn) [Compound 90] |  |  | 2.4 | 5.5 |
| CNC(=O)c1c(-c2ccc(F)cc2)oc2cc(N(C)S(C)(=O)=O)c(-c3ccc4c(n3)-c3cc5c(F)cccc5n3C(C)(CO)O4)cc12 (stereo not drawn) [Compound 91] | 7.4 | 3.3 |  |  |
| CNC(=O)c1c(-c2ccc(F)cc2)oc2cc(N(C)S(C)(=O)=O)c(-c3ccc4c(n3)-c3cc5c(F)cccc5n3C(C)(CO)O4)cc12 (stereo not drawn) [Compound 92] |  |  | 6.5 | 4.2 |
| CNC(=O)c1c(-c2ccc(F)cc2)oc2cc(N(C)S(C)(=O)=O)c(-c3ccc4c(n3)-c3cc5c(F)cccc5n3C(C(OC)OC)O4)cc12 (stereo not drawn) [Compound 93] | 6 | 4.4 |  |  |
